The values below are quoted from earlier work in article PMC7350276 (Journal of pharmaceutical and biomedical analysis, 2019).

Read-outs that look alike come from different tables or passages of the source.

For data set [1], the system named is rabbits. To be noted: subcutaneous 15–20 mg/kg, co-injected with 0.2 mg/kg adrenaline.
Data set [2] concerns μ-opioid receptors. Conditions: reversal of morphine-induced inhibition of twitch of the Guinea pig ileum.
For data set [3], the system named is rabbits. To be noted: intravenously at doses higher than 10 mg/kg.
The conditions of data set [4]: I.V. 5 mg/kg, mean ± R.S.D.
Data set [5] concerns μ-opioid receptors.
The conditions of data set [6]: male rats, I.V. 4 mg/kg.

Turning to corynantheidine, the “Effect on adrenaline-induced mydriasis” value in the data set on rabbits [1] is listed as “prevented adrenaline-induced mydriasis”. The “Functional activity at μ-opioid receptors” value (shortened to “Functional activity”) with μ-opioid receptors [2] was “antagonist”. Further, in the data set on rabbits [3], the “Effect on hypertensive effects of adrenaline” value was “almost fully blocked”.
In the case of mitragynine [MG], the MRT in data set [4] is on record as 137 ± 18. In the data set with μ-opioid receptors [5], the “Functional activity” value was “partial agonist”.
Turning to `CC[C@@H]1CN2CC[C@@]3(O)C(=Nc4cccc(OC)c43)[C@@H]2C[C@@H]1/C(=C\OC)C(=O)OC` [7HMG, 7-hydroxymitragynine], the MRT in data set [6] was 1.18 ± 0.167 h. In the data set on μ-opioid receptors [5] (no reference given), the “Functional activity” value was “potent μ-opioid agonist”.
